The results in this text go back to patent US20230114405A1, “Microemulsion Delivery Systems for A Female Hormone Blend with Alcohol-Soluble Species Including Nonderivatized Hormones” (Quicksilver Scientific, Inc., priority 2019, published 2023).

Series [1] in a line: Formation of visually clear, shelf-stable MOIW microemulsions with phospholipid and polyethylene glycol derivative. The format is physicochemical. The following applies: used in conjunction with the phospholipid. An excerpt: A shelf-stable microemulsion may be determined in one of two ways. […] Either type of dissociation means that the microemulsion is not shelf-stable.
A visually clear microemulsion has an average particle diameter of 200 nm and less and lacks precipitated solid crystals visible to the naked eye.

Series [2] is described as follows: Solubility of DHEA in ethanol and MCT oil. The format is physicochemical. The source says:
An alcohol-soluble species is a species that is insoluble in water and has a greater solubility in ethanol than in medium chain triglyceride (MCT) oils. […] Alcohol-soluble species are preferably pharmacologically active, more preferably are a drug or a supplement, and neither include nor are water. Thus, liquids and solids may exist that technically are soluble in alcohol, but because they also are soluble in water or more or equivalently soluble in MCT oils than in ethanol are not “alcohol-soluble species”.
Solubilized means that the alcohol-soluble species to be delivered is in the solution of the droplet. […] Thus, if either average particle diameters greater than 200 nm or precipitated crystals visible to the naked eye form, the alcohol-soluble species is not solubilized in the solution of the droplet. If an alcohol-soluble species is not solubilized in the solution, it is insoluble in the solution. In many respects, solubility may be thought of as a concentration dependent continuum. For example, the following descriptive terms may be used to express solubility of a solute in a solvent (grams solid/mL of solvent) at 25 degrees Celsius: […]

Regarding polysorbate 20, the “phospholipid to polyethylene glycol derivative ratios resulting in visually clear, shelf-stable microemulsions” value in series [1] was “did not form visually clear, shelf-stable microemulsions”.

`C[C@]12CC[C@H](O)CC1=CC[C@@H]1[C@@H]2CC[C@]2(C)C(=O)CC[C@@H]12` [DHEA, dehydroepiandrosterone (3-beta-hydroxyandrosteron-5-en-17-one)]: in series [2] (MCT oil), the “descriptive solubility level in MCT oil” value is given as “sparingly soluble” and the “solubility in MCT oil” value is recorded as “approximately 10 mg/mL”. Moreover, in series [2] (ethanol), the “descriptive solubility level in ethanol” value is on record as “freely soluble” and the solubility in ethanol result is on record as “approximately 150 mg/mL”.
